Where two headings read alike, the source gives them in different places.
Columns and labels:
KYSE-520 cells = test: KYSE-520 cell proliferation experiment (CellTiter-Glo, 7 days); assay type: cell-based; settings: Homo sapiens
Description: The treated cell plate was incubated at 37° C., 5% CO2 for 7 days. CellTiter-Glo (Promega, G7573) was used to determine the number of viable cells in each well of the treated plate. 100 μL of the detection reagent was added to each well, and the plate was incubated at room temperature for 10 minutes. Then, the […] in each well was measured with Envision plate reader (PerkinElmer). […] The IC50 value was further calculated as the compound concentration required for 50% proliferation inhibition in the best-fit curve with […].

[1] = target: T1, SHP2 wild-type phosphatase (recombinantly expressed full-length SHP2, aa 1-593) (Homo sapiens, UniProt Q06124); test: In vitro activity on SHP2 wild-type phosphatase (DiFMUP fluorescence); settings: wild-type full-length SHP2, activated polypeptide IRS1 0.5 nM, DiFMUP 30 μM;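 also: enzyme preincubated at room temperature, then DiFMUP reaction run at room temperature and halted with SDS, potency derived from a logistic curve fit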
T1 sequence (Q06124 1-593): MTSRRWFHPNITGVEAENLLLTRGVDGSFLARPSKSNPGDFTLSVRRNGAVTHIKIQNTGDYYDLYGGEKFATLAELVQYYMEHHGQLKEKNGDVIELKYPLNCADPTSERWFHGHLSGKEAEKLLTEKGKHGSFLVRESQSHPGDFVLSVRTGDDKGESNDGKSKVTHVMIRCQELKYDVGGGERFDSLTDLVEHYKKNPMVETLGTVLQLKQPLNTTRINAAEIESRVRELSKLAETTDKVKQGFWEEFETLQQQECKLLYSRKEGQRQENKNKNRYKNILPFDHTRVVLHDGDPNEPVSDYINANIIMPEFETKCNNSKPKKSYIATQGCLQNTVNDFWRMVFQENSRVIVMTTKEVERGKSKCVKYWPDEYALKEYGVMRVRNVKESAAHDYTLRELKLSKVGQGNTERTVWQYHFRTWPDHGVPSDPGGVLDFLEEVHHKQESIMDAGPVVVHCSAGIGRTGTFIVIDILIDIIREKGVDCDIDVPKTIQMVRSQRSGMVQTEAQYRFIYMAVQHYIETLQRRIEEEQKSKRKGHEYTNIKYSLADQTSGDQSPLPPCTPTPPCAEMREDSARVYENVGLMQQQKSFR
Description: 0.2 nM recombinantly expressed full-length SHP2 (aa 1-593), 0.5 nM activated polypeptide IRS1 with double phosphorylation sites (sequence: H2N-LN(pY)IDLDLY(dPEG8)LST(pY)ASINFQK-amide) and a series of concentrations of the test compound (final concentrations were 1 μM, 0.3 μM, 0.1 μM, 0.03 μM, 0.01 μM, 0.003 μM, 0.001 μM, 0.0003 μM, 0.0001 μM, 0.00003 μM) were added to the phosphatase reaction solution (60 mM HEPES, pH 7.5 0.005% Brij-35, 75 mM NaCl, 75 mM KCl, 1 mM EDTA, 5 mM DTT). The reaction solution was shaked (350 rpm) at room temperature for 30 minutes. The reaction substrate DiFMUP with a final concentration of 30 μM was added, and the reaction solution was reacted at room temperature for 30 minutes. The phosphatase reaction was stopped by adding 5 μL of stop solution (60 mM HEPES, pH 7.5, 0.2% SDS). Ex358 nm/Em455 fluorescence value was read on the fluorescence plate reader MD SpectraMax.
The IC50 value of the compound was calculated using the four-parameter logit method. In the following formula, x represents the logarithmic form of the compound concentration, and F(x) represents the effect value (the inhibition rate of cell proliferation under the given concentration condition): F(x)=((A−D)/(1+((x/C)^B)))+D. A, B, C and D are four parameters. Different concentrations correspond to different inhibition rates, based on which an inverse curve was plotted, and the IC50 of the inhibitor was calculated from the curve. The IC50 of the compound was calculated with Primer premier 6.0.

p-ERK in KYSE-520 cells = test: Determination of p-ERK in KYSE-520 cells (HTRF); assay type: cell-based; settings: Homo sapiens, KYSE-520, 2 h
Description: KYSE-520 cells (Nanjing Cobioer Biosciences CO., Ltd.) in the logarithmic growth phase were inoculated (30,000 cells/well) in 1640 medium containing 10% of FBS, and adhered in a 96-well plate overnight (5% CO2, 37° C.). […] The cell culture was stopped with cell lysate. The level of phosphorylated ERK in KYSE-520 cells was determined by a method based on homogeneous time-resolved fluorescence HTRF (Cisbio, 64ERKPEG). The fluorescence values (Ex337 nm/Em625/665 nm) were read on the compatible HTRF reader (MD SpectraMax).

hERG potassium channel = target: T2, hERG potassium channel (Homo sapiens, UniProt Q12809); test: hERG current inhibition experiment (manual patch clamp, CHO hERG cells); assay type: cell-based; settings: whole-cell patch clamp, tail current
T2 construct: host or cells: CHO hERG cells
T2 sequence (Q12809 whole entry): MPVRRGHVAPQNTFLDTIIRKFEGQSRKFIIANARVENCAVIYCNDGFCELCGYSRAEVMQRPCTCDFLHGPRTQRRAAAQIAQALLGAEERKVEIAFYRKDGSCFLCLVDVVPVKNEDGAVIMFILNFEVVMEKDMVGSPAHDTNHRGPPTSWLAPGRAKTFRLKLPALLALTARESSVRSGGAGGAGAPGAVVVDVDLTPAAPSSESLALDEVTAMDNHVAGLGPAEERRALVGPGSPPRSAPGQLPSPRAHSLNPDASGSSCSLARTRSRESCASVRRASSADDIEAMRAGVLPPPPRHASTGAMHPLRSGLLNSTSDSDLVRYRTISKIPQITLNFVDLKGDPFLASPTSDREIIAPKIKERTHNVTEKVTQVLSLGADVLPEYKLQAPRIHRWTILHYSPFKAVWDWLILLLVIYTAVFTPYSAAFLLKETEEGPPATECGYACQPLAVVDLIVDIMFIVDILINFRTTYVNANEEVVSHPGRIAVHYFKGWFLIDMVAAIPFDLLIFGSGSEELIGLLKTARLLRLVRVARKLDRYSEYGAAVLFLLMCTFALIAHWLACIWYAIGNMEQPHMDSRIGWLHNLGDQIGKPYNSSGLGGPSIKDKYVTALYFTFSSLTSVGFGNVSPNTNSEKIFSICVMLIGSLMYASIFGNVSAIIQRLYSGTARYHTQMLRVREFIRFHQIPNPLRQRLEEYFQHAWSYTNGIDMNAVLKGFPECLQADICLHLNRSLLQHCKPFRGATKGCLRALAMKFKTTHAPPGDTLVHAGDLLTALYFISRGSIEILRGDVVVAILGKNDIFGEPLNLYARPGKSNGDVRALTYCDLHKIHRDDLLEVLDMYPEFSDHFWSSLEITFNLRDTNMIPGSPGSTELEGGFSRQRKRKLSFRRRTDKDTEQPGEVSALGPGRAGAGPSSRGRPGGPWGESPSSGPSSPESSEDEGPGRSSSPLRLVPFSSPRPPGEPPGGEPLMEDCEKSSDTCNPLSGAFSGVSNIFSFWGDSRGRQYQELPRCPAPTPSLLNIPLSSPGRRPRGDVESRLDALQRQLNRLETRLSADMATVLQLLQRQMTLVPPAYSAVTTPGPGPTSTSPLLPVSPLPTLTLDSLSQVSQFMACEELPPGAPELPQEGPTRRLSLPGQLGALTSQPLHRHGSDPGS
Description: In this experiment, whole-cell current recording was performed using a manual patch clamp system (HEKA EPC-10 signal amplification and digital conversion system, purchased from HEKA Electronic, Germany). The round glass slide of which surface CHO hERG cells (provided by Sophion Bioscience Inc., Denmark, the cell generation number was P21) were grown on was placed in an electrophysiological recording slot under an inverted microscope. The recording slot was continuously perfused with extracellular fluid (approximately 1 mL per minute). Conventional whole-cell patch clamp current recording technique was used in the experiment. The experiments were performed at normal room temperature (˜25° C.). The cells were clamped at a voltage of −80 mV. Cell patch clamp voltage was depolarized to +20 mV to activate hERG potassium channel, and to −50 mV after 5 seconds to eliminate inactivation and generate tail currents. The tail current peak was used as a value of hERG current. When the hERG potassium current recorded in the above steps became steady under continuous perfusion of the extracellular fluid in the recording slot, the drug to be tested could be added to the perfusion, until the inhibition effect of the drug on hERG current reached a steady state. Generally, the overlapping of most recent three consecutive current recording lines was used as a criterion to determine whether the state was stable. After reaching the steady state, the recording slot was perfused with extracellular fluid until the hERG current returned to the value before the drug adding. The test data was analyzed by HEKA Patchmaster (V2x73.2), Microsoft Excel and the data analysis software provided by Graphpad Prism 5.0.

[2] = Pharmacokinetics assay in rats; assay type: in vivo, SD rats; settings: rat; for AUC: read-out: Area under curve AUC; for half-life: read-out: Half-life T1/2 (converted)
Description: Rats were used as test animals. The drug concentration in plasma at different time points was determined by LC/MS/MS method after intravenous administration or intragastrical administration of the compound of the present invention to rats. The pharmacokinetic behavior of the compound of the present invention was studied and evaluated in rats.
The atropisomer with a RT of 1.495 minutes in Examples 3 and 4, compounds of Example 17, Example 41 and Example 43.
Healthy male SD rats (6-8 weeks old), 3 rats per group.
Intravenous administration: A certain amount of the test compound was weighed, to which 10% by volume of N,N-dimethylacetamide, 33% by volume of triethylene glycol and 57% by volume of water were added to prepare a 1 mg/mL colorless, clear and transparent solution;
Intragastrical administration: A certain amount of the test compound was weighed, to which 0.5% by mass of hypromellose, 0.1% by volume of Tween 80 and 99.4% by volume of water were added to prepare a 1 mg/mL white suspension.
After an overnight fast, the SD rats were intravenously administered the test compound at an administration dose of 1 mg/kg, or intragastrically administered the test compound at an administration dose of 5 mg/kg.
(§1) The rats were intravenously administered the compound of the present invention. 0.2 ml of blood was taken from the jugular vein at 0.083, 0.25, 0.5, 1, 2, 4, 8 and 24 hours after the administration. The samples were placed in tubes containing EDTA-K2, and centrifuged at 4000 rpm and 4° C. for 5 minutes to separate the blood plasma. The plasma samples were stored at −75° C.
as §1, with “Or, the rats” for “The rats”, “were intragastrically” for “were intravenously”, “at” for “at 0.083,”
The content of the test compound in the plasma of rat after intragastrical administration of the test compound at different concentrations was determined: 50 μL of rat plasma at each time after administration was taken, to which 200 μL of a solution (50 ng/mL) of internal standard dexamethasone in acetonitrile was added. The plasma was vortex-mixed for 30 seconds, and centrifuged at 4700 rpm and 4° C. for 15 minutes. The supernatant was taken from the plasma samples, and a three-fold dilution was carried out by adding water. 2.0 μL of the supernatant was used for LC/MS/MS analysis.

Row | SMILES | IC50 (KYSE-520 cells) [nM] | IC50 [1] [nM] | IC50 (p-ERK in KYSE-520 cells) [nM] | IC50 (hERG potassium channel) [nM] | AUC ([2]; male, SD, plasma, IV 1 mg/kg) [ng·h/mL] | clearance ([2]; male, SD, plasma, IV 1 mg/kg, read-out: Clearance CL_obs) [mL/min/kg] | half-life ([2]; male, SD, plasma, IV 1 mg/kg) [h] | bioavailability ([2]; male, SD, plasma, PO 5 mg/kg vs IV 1 mg/kg, read-out: Bioavailability F) [%] | AUC ([2]; male, SD, plasma, PO 5 mg/kg) [ng·h/mL] | half-life ([2]; male, SD, plasma, PO 5 mg/kg) [h] | Cmax ([2]; male, SD, plasma, PO 5 mg/kg, read-out: Maximum plasma concentration Cmax) [ng/mL] | Apparent distribution volume Vss_obs ([2]; IV 1 mg/kg) [L/kg]
1 | Cc1nc(N2CCC3(CC2)CO[C@@H](C)[C@H]3N)n2cnnc2c1-c1cccc(Cl)c1Cl [Example 9, (3S,4S)-8-(8-(2,3-Dichlorophenyl)-7-methyl-[1,2,4]triazolo[4,3-c]pyrimidin-5-yl)-3-methyl-2-oxa-8-azaspiro[4.5]decan-4-amine] | 785 | 3.2 | 285 | 1910 | – | – | – | – | – | – | – | –
2 | C[C@@H]1OCC2(CCN(c3ncc(Sc4cccnc4C(F)(F)F)c4nccn34)CC2)[C@@H]1N [Example 17, (3S,4S)-3-Methyl-8-(8-((2-(trifluoromethyl)pyridin-3-yl)thio)imidazo[1,2-c]pyrimidin-5-yl)-2-oxa-8-azaspiro[4.5]decan-4-amine] | 179 | 4.2 | 32.3 | 12300 | 764 ± 196 | 21.5 ± 5.2 | 2.83 ± 0.93 | 80.3 ± 8.5 | 3210 ± 351 | 3.42 ± 0.37 | 408 ± 77 | 3.8 ± 0.1
3 | C[C@@H]1OCC2(CCN(c3nc(N)c(Sc4cccnc4C(F)(F)F)c4nccn34)CC2)[C@@H]1N [Example 24, (3S,4S)-8-(7-Amino-8-((2-(trifluoromethyl)pyridin-3-yl)thio)imidazo[1,2-c]pyrimidin-5-yl)-3-methyl-2-oxa-8-azaspiro[4.5]decan-4-amine] | 75.9 | 4.4 | 11 | > 30000 | – | – | – | – | – | – | – | –
4 | N[C@@H]1c2cccnc2CC12CCN(c1ncc(Sc3ccnc(NC4CC4)c3Cl)c3nccn13)CC2 [Example 36, (S)-1′-(8-((3-Chloro-2-(cyclopropylamino)pyridin-4-yl)thio)imidazo[1,2-c]pyrimidin-5-yl)-5,7-dihydrospiro[cyclopenta[b]pyridine-6,4′-piperidin]-5-amine] | 40.5 | 2.6 | 8 | 3970 | – | – | – | – | – | – | – | –
5 | Cc1nc(N2CCC3(CC2)Cc2ncccc2[C@H]3N)n2ccnc2c1Sc1ccnc(N)c1Cl [Example 42, (S)-1′-(8-((2-Amino-3-chloropyridin-4-yl)thio)-7-methylimidazo[1,2-c]pyrimidin-5-yl)-5,7-dihydrospiro[cyclopenta[b]pyridine-6,4′-piperidin]-5-amine] | 65.1 | 1.9 | 20.2 | > 30000 | – | – | – | – | – | – | – | –
